Source: paper PMC7516806, “Hybrid Antimicrobial Peptide Targeting Staphylococcus aureus and Displaying Anti-infective Activity in a Murine Model” (Frontiers in Microbiology, 2020)
In brackets after ≈: the same amount, converted by molar mass. Positions of bridges follow the written chain, without caps; N, C: chain ends. Residues, ends and D or L forms follow the SMILES beside them. No end group written: not given here.

Experiments:
L. plantarum 8014 = test: MIC, modified microtiter dilution; format: cell-based, Lactobacillus plantarum; settings: 2–7 × 10^5 CFU/ml, 37°C, 24 h, no turbidity, at least three independent repeats
Excerpt: (§1) The experiment was repeated at least three times independently.

P. aeruginosa 27853 = test: MIC, modified microtiter dilution; format: cell-based, Pseudomonas aeruginosa; settings: MHB, 2–7 × 10^5 CFU/ml, 37°C, 24 h, no turbidity, at least three independent repeats
Excerpt: as §1

L. rhamnosus 1.0385 = test: MIC, modified microtiter dilution; format: cell-based, Lactobacillus rhamnosus; settings: 2–7 × 10^5 CFU/ml, 37°C, 24 h, no turbidity, at least three independent repeats
Excerpt: as §1

L. rhamnosus 7469 = test: MIC, modified microtiter dilution; format: cell-based, Lactobacillus rhamnosus; settings: 2–7 × 10^5 CFU/ml, 37°C, 24 h, no turbidity, at least three independent repeats
Excerpt: as §1

L. rhamnosus 1.0936 = test: MIC, modified microtiter dilution; format: cell-based, Lactobacillus rhamnosus; settings: 2–7 × 10^5 CFU/ml, 37°C, 24 h, no turbidity, at least three independent repeats
Excerpt: as §1

L. rhamnosus 1.0911 = test: MIC, modified microtiter dilution; format: cell-based, Lactobacillus rhamnosus; settings: 2–7 × 10^5 CFU/ml, 37°C, 24 h, no turbidity, at least three independent repeats
Excerpt: as §1

S. aureus 29213 [1] = test: MIC in the presence of physiological salts; format: cell-based, Staphylococcus aureus; settings: three independent repeats; for MIC against S. aureus 29213, FeCl3: 4 μM FeCl3; for MIC against S. aureus 29213, FeCl3 / MIC against S. aureus 29213, NH4Cl / MIC against S. aureus 29213, ZnCl2 / MIC against S. aureus 29213, MgCl2 / MIC against S. aureus 29213, CaCl2 / MIC against S. aureus 29213, KCl / MIC against S. aureus 29213, NaCl: unit not given in Table 4; for MIC against S. aureus 29213, NH4Cl: 6 μM NH4Cl; for MIC against S. aureus 29213, ZnCl2: 8 μM ZnCl2; for MIC against S. aureus 29213, MgCl2: 1 mM MgCl2; for MIC against S. aureus 29213, CaCl2: 2 mM CaCl2; for MIC against S. aureus 29213, KCl: 4.5 mM KCl; for MIC against S. aureus 29213, NaCl: 150 mM NaCl
Procedure: as §1
The MIC of peptides was determined in the presence of salts at physiological concentrations (150 mM NaCl, 4.5 mM KCl, 6 μM NH4Cl, 8 μM ZnCl2, 1 mM MgCl2, 2 mM CaCl2, and 4 μM FeCl3) as described previously ([Dong et al., 2014]). All experiments were performed three times independently.

S. typhimurium 14028 = test: MIC, modified microtiter dilution; format: cell-based, Salmonella typhimurium; settings: MHB, 2–7 × 10^5 CFU/ml, 37°C, 24 h, no turbidity, at least three independent repeats
Excerpt: as §1

S. typhimurium 7731 = test: MIC, modified microtiter dilution; format: cell-based, Salmonella typhimurium; settings: MHB, 2–7 × 10^5 CFU/ml, 37°C, 24 h, no turbidity, at least three independent repeats
Excerpt: as §1

S. aureus 29213 [2] = test: MIC, modified microtiter dilution; format: cell-based, Staphylococcus aureus; settings: MHB, 2–7 × 10^5 CFU/ml, 37°C, 24 h, no turbidity, at least three independent repeats
Excerpt: as §1

S. aureus 25923 = test: MIC, modified microtiter dilution; format: cell-based, Staphylococcus aureus; settings: MHB, 2–7 × 10^5 CFU/ml, 37°C, 24 h, no turbidity, at least three independent repeats
Excerpt: as §1

E. coli 25922 = test: MIC, modified microtiter dilution; format: cell-based, Escherichia coli; settings: MHB, 2–7 × 10^5 CFU/ml, 37°C, 24 h, lowest concentration with no turbidity, at least three independent repeats
Excerpt: as §1

E. coli UB1005 = test: MIC, modified microtiter dilution; format: cell-based, Escherichia coli; settings: MHB, 2–7 × 10^5 CFU/ml, 37°C, 24 h, no turbidity, at least three independent repeats
Excerpt: as §1

S. pullorum 7913 = test: MIC, modified microtiter dilution; format: cell-based, Salmonella pullorum; settings: MHB, 2–7 × 10^5 CFU/ml, 37°C, 24 h, no turbidity, at least three independent repeats
Excerpt: as §1

RAW 264.7 cells = test: Cytotoxicity, MTT dye reduction assay; format: cell-based, murine; settings: highest concentration of 128 μM, 4 h, three independent repeats
Procedure: The cytotoxicity of peptides was determined by healthy human erythrocytes and the murine macrophage cell line RAW 264.7 via a hemolysis assay and MTT dye reduction assay, respectively ([Wang et al., 2018]). In the hemolysis assay, fresh hRBCs from healthy people were centrifuged for 5 min at 1,000 × g and then washed three times with PBS (pH = 7.2). The 100 μL erythrocyte suspension and peptides were incubated for 1.5 h in an incubator at 37°C. The 96-well plates were centrifuged at 1,000 × g for 5 min, and the supernatants were carefully aspirated. The absorbance at 570 nm indicated the leakage of hemoglobin. The hRBCs in the PBS sample was used as the negative control, and 0.1% Triton X-100 addition served as the positive control. In the MTT dye reduction assay, 1.0–2.0 × 10^5 cells were plated in 96-well plates and then treated with various concentrations of peptides for 4 h at 37°C in a 5% CO2 incubator. Subsequently, 50 μL of MTT was added to the plated cells at a final concentration of 0.5 mg/mL and incubated for 4 h. Then, the cells were centrifuged at 1000 × g for 5 min, and the supernatants were discarded. Formazan crystals were dissolved in 150 μL of DMSO, and the OD570 nm was measured using a microplate reader (TECAN GENios F129004; TECAN, Austria). The experiment was repeated three times independently.

MRSA 43300 = format: cell-based, Staphylococcus aureus; settings: MHB, 2–7 × 10^5 CFU/ml, 37°C, 24 h, no turbidity, at least three independent repeats
Excerpt: as §1

E. coli K99 = settings: MHB, 2–7 × 10^5 CFU/ml, 37°C, 24 h, no turbidity, at least three independent repeats
Excerpt: (§2) The bacterial strains Escherichia coli (E. coli) ATCC 25922, E. coli K88, E. coli K99, Pseudomonas aeruginosa (P. aeruginosa) ATCC 27853, Escherichia coli (E. coli) UB1005, Salmonella typhimurium 14028, Salmonella pullorum (S. pullorum) C7913, S. typhimurium C7731, S. aureus ATCC 29213, MRSA ATCC 43300, and S. aureus ATCC 25923 were obtained from the College of Veterinary Medicine, Northeast Agricultural University, China. Lactobacillus plantarum (L. plantarum) 8014, Lactobacillus rhamnosus (L. rhamnosus) 7469, L. rhamnosus 1.0911, L. rhamnosus 1.0936, and L. rhamnosus 1.0385 were obtained from the Key Laboratory of Food College, Northeast Agricultural University, China.
(§3) As in a previous study, the antimicrobial activities of the AMPs were investigated using a modified standard microtiter dilution method ([Dong et al., 2014]). The peptides were serially diluted with a solution containing 0.01% acetic acid and 0.2% bovine serum albumin (BSA, Sigma) in 96-well plates. The bacteria grew to the mid-log phase and then were dissolved in MHB at concentration of 2–7 × 10^5 CFU/ml. The peptides and bacterial solution were mixed in equal volume in a 37°C incubator for 24 h. […] Mueller-Hinton broth with microorganisms was used as the positive control, and the pure broth was used as the negative control. The experiment was repeated at least three times independently.

E. coli K88 = settings: MHB, 2–7 × 10^5 CFU/ml, 37°C, 24 h, no turbidity, at least three independent repeats
Excerpt: as §2, §3

[3] = tested on: panel of bacterial species; test: MIC against a panel of bacterial species (summary statements); format: cell-based; settings: for antimicrobial activity against the tested microorganisms: all tested bacteria, up to the highest concentration measured
Excerpt: as §1

| Compound | MIC L. plantarum 8014 (L. plantarum 8014) [µM] | MIC P. aeruginosa 27853 (P. aeruginosa 27853) [µM] | MIC L. rhamnosus 1.0385 (L. rhamnosus 1.0385) [µM] | MIC L. rhamnosus 7469 (L. rhamnosus 7469) [µM] | MIC L. rhamnosus 1.0936 (L. rhamnosus 1.0936) [µM] | MIC L. rhamnosus 1.0911 (L. rhamnosus 1.0911) [µM] | MIC against S. aureus 29213, FeCl3 (S. aureus 29213 [1]) [µM] | MIC against S. aureus 29213, NH4Cl (S. aureus 29213 [1]) [µM] | MIC against S. aureus 29213, ZnCl2 (S. aureus 29213 [1]) [µM] | MIC against S. aureus 29213, MgCl2 (S. aureus 29213 [1]) [µM] | MIC against S. aureus 29213, CaCl2 (S. aureus 29213 [1]) [µM] | MIC against S. aureus 29213, KCl (S. aureus 29213 [1]) [µM] | MIC against S. aureus 29213, NaCl (S. aureus 29213 [1]) [µM] | MIC S. typhimurium 14028 (S. typhimurium 14028) [µM] | MIC S. typhimurium 7731 (S. typhimurium 7731) [µM] | MIC S. aureus 29213 (S. aureus 29213 [2]) [µM] | MIC S. aureus 25923 (S. aureus 25923) [µM] | MIC E. coli 25922 (E. coli 25922) [µM] | MIC E. coli UB1005 (E. coli UB1005) [µM] | MIC S. pullorum 7913 (S. pullorum 7913) [µM] | also measured |
| --- | --- | --- | --- | --- | --- | --- | --- | --- | --- | --- | --- | --- | --- | --- | --- | --- | --- | --- | --- | --- | --- |
| RWWWAA-NH2 [Peptide S8] | >64 | >64 | >64 | >64 | >64 | >64 | >64 | >64 | 64 | >64 | >64 | >64 | >64 | >64 | >64 | >64 | >64 | >64 | >64 | >64 | RAW 264.7 cell survival rate (RAW 264.7 cells): 85%; MIC MRSA 43300 (MRSA 43300): >64 µM; MIC E. coli K99 (E. coli K99): >64 µM; MIC E. coli K88 (E. coli K88): >64 µM |
| C[C@@H]1NC(=O)[C@@H](N)CSSC[C@@H](C(=O)N[C@@H](CCCNC(=N)N)C(=O)N[C@@H](Cc2c[nH]c3ccccc23)C(=O)N[C@@H](Cc2c[nH]c3ccccc23)C(=O)N[C@@H](Cc2c[nH]c3ccccc23)C(=O)N[C@@H](CCCNC(=N)N)C(=O)N[C@@H](CCCNC(=N)N)C(N)=O)NC(=O)[C@H](Cc2ccccc2)NC(=O)[C@H](Cc2ccc(O)cc2)NC(=O)[C@H](CO)NC1=O [Peptide S1] (H-CASYFCRWWWRR-NH2; disulfide 1-6; N-terminus assumed) | >64 | >64 | >64 | >64 | >64 | >64 | 8 | 4 | 1 | 4 | 8 | 4 | 4 | 64 (≈ 110 µg/mL) | 32 (≈ 54.9 µg/mL) | 4 (≈ 6.87 µg/mL) | 4 (≈ 6.87 µg/mL) | 8 (≈ 13.7 µg/mL) | 8 (≈ 13.7 µg/mL) | 8 (≈ 13.7 µg/mL) | concentrations suppressing growth of tested Gram-negative bacteria ([3]; all tested Gram-negative bacteria except P. aeruginosa 27853): 4 to 64 µM; RAW 264.7 cell survival rate (RAW 264.7 cells): 86%; MIC MRSA 43300 (MRSA 43300): 4 µM (≈ 6.87 µg/mL); MIC E. coli K99 (E. coli K99): 4 µM (≈ 6.87 µg/mL); MIC E. coli K88 (E. coli K88): 32 µM (≈ 54.9 µg/mL) |
| CC(C)C[C@H](NC(=O)[C@H](CC(C)C)NC(=O)[C@H](Cc1c[nH]c2ccccc12)NC(=O)[C@H](Cc1c[nH]c2ccccc12)NC(=O)[C@H](Cc1c[nH]c2ccccc12)NC(=O)[C@H](CCCNC(=N)N)NC(=O)[C@H](CS)NC(=O)[C@H](Cc1ccccc1)NC(=O)[C@H](Cc1ccc(O)cc1)NC(=O)[C@H](CO)NC(=O)[C@H](C)NC(=O)[C@@H](N)CS)C(N)=O [Peptide S4] (H-CASYFCRWWWLL-NH2; N-terminus assumed) | >64 | >64 | >64 | >64 | >64 | >64 | >64 | >64 | >64 | >64 | >64 | >64 | >64 | >64 | >64 | >64 | >64 | >64 | >64 | >64 | antimicrobial activity against the tested microorganisms [3]: failed to show antimicrobial activity; RAW 264.7 cell survival rate (RAW 264.7 cells): 90%; MIC MRSA 43300 (MRSA 43300): >64 µM; MIC E. coli K99 (E. coli K99): >64 µM; MIC E. coli K88 (E. coli K88): >64 µM |
| RWWWRR-NH2 [Peptide S6] | >64 | >64 | >64 | >64 | >64 | >64 | 32 | 16 | 4 | 32 | 32 | 16 | 8 | >64 | >64 | 16 | 16 | 32 | 32 | >64 | RAW 264.7 cell survival rate (RAW 264.7 cells): 94%; MIC MRSA 43300 (MRSA 43300): 8 µM; MIC E. coli K99 (E. coli K99): 32 µM; MIC E. coli K88 (E. coli K88): 32 µM |
| C[C@@H]1NC(=O)[C@@H](N)CSSC[C@@H](C(N)=O)NC(=O)[C@H](Cc2ccccc2)NC(=O)[C@H](Cc2ccc(O)cc2)NC(=O)[C@H](CO)NC1=O [Peptide S5] (H-CASYFC-NH2; disulfide 1-6; N-terminus and C-terminus assumed) | – | – | – | – | – | – | – | – | – | – | – | – | – | – | – | – | – | – | – | – | MIC against S. aureus 29213 (column MIC, no added salt) (S. aureus 29213 [1]; control without added salt, unit not printed in Table 4, μM as in Table 3): >64 µM; antimicrobial activity against the tested microorganisms [3]: failed to show antimicrobial activity |
